Measured values: patent US20200323986A1, “HYDROPHOBIC ARENESULFONATE SALTS” (Theracaine LLC, priority 2017, published 2020)

Experiments:
[1] = Gross evaluation of dose sites and general gross necropsy at study termination; format: in vivo, female Sprague Dawley rats; details: rat
Procedure: Sigma-Aldrich, polyethylene glycol 200 Bioultra). […] The test article was distributed as evenly as possible. […] All animals received analgesia and antibiotic treatment. Cage side observations were performed daily.

[2] = Clinical (cage side) observations and body weight after a single subcutaneous dose; details: rat; for tolerability as administered (summary): particles in PEG200, 114/134/161/193 mg/kg-bw (Groups 1-4)
Procedure: (§1) The test articles are drug compositions consisting of B-4BrBSA-650, B-35BrBSA-650, L-4BrBSA-650, and L-35BrBSA-650 particles in a polyethylene glycol 200 vehicle (PEG200; Sigma-Aldrich, polyethylene glycol 200 Bioultra). The test articles were prepared by adding a volume of […] to an appropriate weighed amount of test article in a vial, gently mixed, and then applied uniformly via a single subcutaneous dose via incision on the dorsum of female Sprague Dawley rats.
(§2) Doses were administered via an incision on the dorsal region, as a subcutaneous liquid application (suspension of powder). Each test article was administered at an amount determined by each animal's weight using the calculated mg per kg-bw (bodyweight) as shown in the table below.
(§3) The vehicle was provided as a liquid in an individual container. […] A volume of 100 μL of vehicle was added to each individual dose, allowed to soak, and shaken occasionally to uniformly mix the particles with the PEG200.
(§4) For all groups, the test article suspension was applied to the subcutaneum using a plastic spatula. The test article was distributed as evenly as possible. Incisions were closed with staples, and the animals allowed to recover. All animals received analgesia and antibiotic treatment.
(§5) Cage side observations were performed daily.

[3] = Pharmacokinetics of caine anesthetic salt particles after a single subcutaneous dose (plasma drug concentration versus time); details: rat; for initial spike in bupivacaine plasma concentration: single subcutaneous dose, 650 μm particles in PEG200, Groups 1 and 2; for delivery of lidocaine over time (plasma lidocaine concentration versus time) / initial spike in plasma lidocaine concentration: in vivo, sc
Procedure: as §1, §2, §3, §4, §5

[4] = at study termination (after 96 h sampling)
[5] = animals that lost weight, over the course of the study
[6] = five animals per group, single subcutaneous dose
[7] = group average, single subcutaneous dose

| Structure (SMILES) | encapsulation at dose site ([1]; at study termination) | other dose site findings (hematoma, unknown material) ([1]; at study termination) | vascularization surrounding the incision sites (dose site observation) ([1]; at study termination) | residual test article visible at dose site [1, 4] | weight loss [2, 5] | animals that lost weight over the course of the study [2, 6] | group mean body weight change at the end of the study [2, 7] | tolerability as administered (summary) ([2]; single subcutaneous dose) | initial spike in bupivacaine plasma concentration ([3]; FIGS. 1-2) | residual test article visible at dose site ([1]; in vivo) | vascularization surrounding the incision sites (dose site observation) ([1]; in vivo) | weight loss ([2]; in vivo) | animals that lost weight over the course of the study ([2]; in vivo, sc) | group mean body weight change at the end of the study ([2]; in vivo, sc) | delivery of lidocaine over time (plasma lidocaine concentration versus time) [3] | initial spike in plasma lidocaine concentration [3] | further results |
| --- | --- | --- | --- | --- | --- | --- | --- | --- | --- | --- | --- | --- | --- | --- | --- | --- | --- |
| CCCCN1CCCCC1C(=O)Nc1c(C)cccc1C.O=S(=O)(O)c1ccc(Br)cc1 (centres unmarked) [Example B-4BrBSA-650, Bupivacaine 4-bromobenzenesulfonate salt] | No additional encapsulation or residual test article was visible | Hematomas were present in Animals #2 and #4, with encapsulation of clotted blood in Animal #4 | very slight to slight vascularization | No additional encapsulation or residual test article was visible | less than 5 % total body weight | two out of five | 4 gram | well tolerated | initial spike in bupivacaine plasma concentration exhibited by test article 1 |  |  |  |  |  |  |  |  |
| CCN(CC)CC(=O)Nc1c(C)cccc1C.Cc1c(Br)cc(S(=O)(=O)O)cc1Br [L-35BrBSA-650, Lidocaine 3,5-dibromo-4-methybenzenesulfonate salt] |  |  |  |  |  |  |  | well tolerated |  | No residual test article or encapsulation was visible | very slight to moderate vascularization | less than 5 % total body weight | two out of five | 1 gram | at least 24 hours | avoids the initial spike in plasma lidocaine concentration | encapsulation at dose site ([1]; in vivo): No residual test article or encapsulation was visible |
| CCCCN1CCCCC1C(=O)Nc1c(C)cccc1C.Cc1c(Br)cc(S(=O)(=O)O)cc1Br (centres unmarked) [B-35BrBSA-650, Bupivacaine 3,5-dibromo-4-methybenzenesulfonate salt] | No encapsulation was present | A small hematoma was present in Animal #7 | very slight to slight vascularization | Small areas of residual test article were visible at or near the incision site in all animals | less than 5 % total body weight | two out of five | 1 gram | well tolerated | without the initial spike in bupivacaine plasma concentration |  |  |  |  |  |  |  | duration of delivery of bupivacaine (plasma bupivacaine concentration versus time) ([3]; single subcutaneous dose via dorsal incision, 650 μm particles in 100 μL PEG200, 114 (Group 1) / 134 (Group 2) mg/kg-bw, plasma to 96 h, FIGS. 1-2): greater duration of delivery of bupivacaine compared to test article 1 |
| CCN(CC)CC(=O)Nc1c(C)cccc1C.O=S(=O)(O)c1ccc(Br)cc1 [Example L-4BrBSA-650, Lidocaine 4-bromobenzenesulfonate salt] |  |  |  |  |  |  |  |  |  | No residual test article was visible | moderate to severe vascularization | less than 5 % total body weight | four out of five | −1 gram | at least 24 hours | initial spike in plasma lidocaine concentration exhibited by test article 3 | encapsulation size at dose site ([1]; in vivo): 0.5-3 cm; other dose site findings (hematoma, unknown material) ([1]; in vivo): Areas of an unknown brown material were present in Animal #13; survival ([2]; single subcutaneous dose, to scheduled euthanasia (96 h study)): all animals survived until scheduled euthanasia |
